Literature values as cited in US8431603B2, “3-phenylpyrazolo[5,1-b]thiazole compounds” (Eisai R&D Management Co., Ltd., priority 2008, dated 2013).

Key:
rat = conditions: cited from earlier work
Tg2576 mice = conditions: cited from earlier work
[1] = in vivo; cited from earlier work
[2] = in vivo; cited from earlier work; remark: listed apart in the source
[3] = in vivo; cited from earlier work; remark: listed apart in the source

Row | SMILES | water avoidance stress-related rat catharsis (rat) | increased levels of Aβ and Aβ plaque deposition induced by stress (Tg2576 mice) | limbic system seizure (convulsion and epilepsy induced by CRF administration) [1] | stress-induced hippocampal tau phosphorylation [2] | hypertension induced by intraventricular administration of CRF [3]
1 | CCCN(CC1CC1)c1nc(C)nc(Nc2c(Cl)cc(Cl)cc2Cl)c1Cl [NBI-27914] | inhibits | inhibits | inhibits | – | –
2 | CCCCN(CC)c1nc(C)nc2c1c(C)c(C)n2-c1c(C)cc(C)cc1C [antalarmin] | – | – | – | inhibits | inhibits
